Assay results reported in patent publication US11090304B2 (Amgen Inc., priority 2018, dated 2021).
Read-outs that look alike come from different tables or passages of the source.

How the values were obtained:
[1] = system: Phosphorylation of ERK1/2 in MIA PaCa-2 cells; assay: Phospho-ERK1/2 MSD assay in MIA PaCa-2 cells; format: cell-based; conditions: read-out: p-ERK IC50 (2 h; MIA PaCa-2), 2 h compound treatment
Description: For compounds in Table 89, the following assay conditions were employed:
Phospho-ERK1/2 MSD Assay:
Sixteen hours prior to compound treatment, MIA PaCa-2 or A549 cells were seeded in 96-well cell culture plates at a density of 25,000 cells/well and incubated at 37° C., 5% CO2. A compound dose-response titration was diluted in growth media, added to appropriate wells of a cell culture plate, and then incubated at 37° C., 5% CO2 for 2 or 4 hours (see Table 15). Following compound treatment, cells were stimulated with 10 ng/mL EGF (Roche 11376454001) for 10 min, washed with ice-cold Dulbecco's phosphate-buffered saline, no Ca^2+ or Mg^2+ (ThermoFisher Scientific 14190144), and then lysed in RIPA buffer (50 mM Tris-HCl pH 7.5, 1% Igepal, 0.5% sodium deoxycholate, 150 mM NaCl, and 0.5% sodium dodecyl sulfate) containing protease inhibitors (Roche 4693132001) and phosphatase inhibitors (Roche 4906837001). Phosphorylation of ERK1/2 in compound-treated lysates was assayed using Phospho-ERK1/2 Whole Cell Lysate kits (Meso Scale Discovery K151DWD) according to the manufacturer's protocol. Assay plates were read on a Meso Scale Discovery Sector Imager 6000, and data were analyzed using a 4-parameter logistic model to calculate IC50 values.

[2] = molecular target: GDP-bound KRAS protein (aa 1-169), containing both G12C and C118A amino acid substitutions (Homo sapiens, UniProt P01116, C118A/G12C); assay: Coupled nucleotide exchange assay (SOS-mediated, AlphaScreen); format: biochemical; conditions: 5 min compound pre-incubation; for IC50: read-out: Coupled exchange IC50 (5 min)

Compound	IC50 [1] [nM]	IC50 [2] [nM]	IC50 ([1]; Homo sapiens, MIA PaCa-2, 2 h) [nM]	Coupled exchange IC50 (5 min) [2]
6-Chloro-7-(2-fluoro-6-hydroxyphenyl)-4-((2S)-2-methyl-4-(2-propenoyl)-1-piperazinyl)-1-(2-(methylsulfonyl)phenyl)pyrido[2,3-d]pyrimidin-2(1H)-one [Example 54-1]	109	225		
C=CC(=O)N1CCN(c2nc(=O)n(-c3c(C)cccc3C(C)C)c3nc(-c4ccccc4F)c(Cl)cc23)[C@@H](C)C1 (atropisomer, axis not shown; (M)) [Example 64-1, (M)-6-Chloro-7-(2-fluorophenyl)-1-(2-methyl-6-(2-propanyl)phenyl)-4-((2S)-2-methyl-4-(2-propenoyl)-1-piperazinyl)pyrido[2,3-d]pyrimidin-2(1H)-one]	76	44		
C=CC(=O)N1CCN(c2nc(=O)n(-c3c(C)ccnc3C(C)C)c3nc(-c4nc(N)ccc4Cl)c(F)cc23)C(C)C1 (atropisomer, axis not shown; (M)) [Example 65-1, (M)-7-(6-Amino-3-chloro-2-pyridinyl)-6-fluoro-1-(4-methyl-2-(2-propanyl)-3-pyridinyl)-4-((2S)-2-methyl-4-(2-propenoyl)-1-piperazinyl)pyrido[2,3-d]pyrimidin-2(1H)-one]			1520	0.606 | nda μM
C=CC(=O)N1CCN(c2nc(=O)n(-c3c(C)ccnc3C(C)C)c3nc(-c4c(O)cc(F)cc4F)c(F)cc23)[C@@H](C)C1 (atropisomer, axis not shown; (M)) [Example 65-3, (M)-7-(2,4-difluoro-6-hydroxyphenyl)-6-fluoro-1-(4-methyl-2-(2-propanyl)-3-pyridinyl)-4-((2S)-2-methyl-4-(2-propenoyl)-1-piperazinyl)pyrido[2,3-d]pyrimidin-2(1H)-one]			100	0.096 | nda μM
C=CC(=O)N1CCN(c2nc(=O)n(-c3c(C)ccnc3C(C)C)c3nc(-c4cc(F)c(F)cc4O)c(F)cc23)[C@@H](C)C1 (atropisomer, axis not shown; (M)) [Example 72-2, (M)-7-(4,5-difluoro-2-hydroxyphenyl)-6-fluoro-1-(4-methyl-2-(2-propanyl)-3-pyridinyl)-4-((2S)-2-methyl-4-(2-propenoyl)-1-piperazinyl)pyrido[2,3-d]pyrimidin-2(1H)-one]			595	0.534 | nda μM
C=CC(=O)N1CCN(c2nc(=O)n(-c3c(C)ccnc3C(C)C)c3nc(-c4c(C)cccc4O)c(F)cc23)[C@@H](C)C1 (atropisomer, axis not shown; (M)) [Example 72-4, (M)-6-fluoro-7-(2-hydroxy-6-methylphenyl)-1-(4-methyl-2-(2-propanyl)-3-pyridinyl)-4-((2S)-2-methyl-4-(2-propenoyl)-1-piperazinyl)pyrido[2,3-d]pyrimidin-2(1H)-one]			115	0.08 | nda μM
C=CC(=O)N1CCN(c2nc(=O)n(-c3c(C)ccnc3C(C)C)c3nc(-c4cc(OC)c(F)cc4F)c(F)cc23)[C@@H](C)C1 (atropisomer, axis not shown; (M)) [Example 72-6, (M)-7-(2,4-difluoro-5-methoxyphenyl)-6-fluoro-1-(4-methyl)-2-(2-propanyl)-3-pyridinyl)-4-((2S)-(2-methyl-4-(2-propenoyl)-1-piperazinyl)pyrido[2,3-d]pyrimidin-2(1H)-one]			564	0.315 | nda μM
C=CC(=O)N1CCN(c2nc(=O)n(-c3c(C)ccnc3C(C)C)c3nc(-c4cc(O)c(F)cc4F)c(F)cc23)[C@@H](C)C1 (atropisomer, axis not shown; (M)) [Example 72-7, (M)-7-(2,4-difluoro-5-hydroxyphenyl)-6-fluoro-1-(4-methyl-2-(2-propanyl)-3-pyridinyl)-4-((2S)-2-methyl-4-(2-propenoyl)-1-piperazinyl)pyrido[2,3-d]pyrimidin-2(1H)-one]			2240	0.262 | nda μM
C=CC(=O)N1CCN(c2nc(=O)n(-c3c(C)ccnc3C(C)C)c3nc(-c4c(O)ccc(F)c4F)c(F)cc23)[C@@H](C)C1 (atropisomer, axis not shown; (M)) [Example 72-8, (M)-7-(2,3-difluoro-6-hydroxyphenyl)-6-fluoro-1-(4-methyl-2-(2-propanyl)-3-pyridinyl)-4-((2S)-2-methyl-4-(2-propenoyl)-1-piperazinyl)pyrido[2,3-d]pyrimidin-2(1H)-one]			91	0.042 | nda μM
C=CC(=O)N1CCN(c2nc(=O)n(-c3c(C)ccnc3C(C)C)c3nc(-c4c(F)ccc(F)c4O)c(F)cc23)[C@@H](C)C1 (atropisomer, axis not shown; (M)) [Example 72-9, (M)-7-(3,6-difluoro-2-hydroxyphenyl)-6-fluoro-1-(4-methyl-2-(2-propanyl)-3-pyridinyl)-4-((2S)-2-methyl-4-(2-propenoyl)-1-piperazinyl)pyrido[2,3-d]pyrimidin-2(1H)-one]			554	0.191 | nda μM
C=CC(=O)N1CCN(c2nc(=O)n(-c3c(C)ccnc3C(C)C)c3nc(-c4c(F)ccc(C)c4O)c(F)cc23)[C@@H](C)C1 (atropisomer, axis not shown; (M)) [Example 72-10, (M)-6-fluoro-7-(6-fluoro-2-hydroxy-3-methylphenyl)-1-(4-methyl-2-(2-propanyl)-3-pyridinyl)-4-((2S)-2-methyl-4-(2-propenoyl)-1-piperazinyl)pyrido[2,3-d]pyrimidin-2(1H)-one]			150	0.158 | nda μM
C=CC(=O)N1CCN(c2nc(=O)n(-c3c(C)ccnc3C(C)C)c3nc(-c4c(N)cccc4F)c(F)cc23)[C@@H](C)C1 (atropisomer, axis not shown; (M)) [Example 72-11, (M)-7-(2-amino-6-fluorophenyl)-6-fluoro-1-(4-methyl-2-(2-propanyl)-3-pyridinyl)-4-((2S)-2-methyl-4-(2-propenoyl)-1-piperazinyl)pyrido[2,3-d]pyrimidin-2(1H)-one]			44	0.039 | nda μM
C=CC(=O)N1C[C@H](C)N(c2nc(=O)n(-c3c(C)ccnc3C(C)C)c3nc(-c4c(N)cccc4F)c(F)cc23)[C@@H](C)C1 (atropisomer, axis not shown; (M)) [Example 72-13, (M)-7-(2-amino-6-fluorophenyl)-4-((2S,6S)-2,6-dimethyl-4-(2-propenoyl)-1-piperazinyl)-6-fluoro-1-(4-methyl-2-(2-propanyl)-3-pyridinyl)pyrido[2,3-d]pyrimidin-2(1H)-one]			12	0.021 | nda μM
C=CC(=O)N1C[C@H](C)N(c2nc(=O)n(-c3c(C)ccnc3C(C)C)c3nc(-c4ccccc4F)c(F)cc23)[C@@H](C)C1 (atropisomer, axis not shown; (M)) [Example 72-14, (M)-4-((2S,6S)-2,6-dimethyl-4-(2-propenoyl)-1-piperazinyl)-6-fluoro-7-(2-fluorophenyl)-1-(4-methyl-2-(2-propanyl)-3-pyridinyl)pyrido[2,3-d]pyrimidin-2(1H)-one]			55	0.081 | nda μM
C=CC(=O)N1CCN(c2nc(=O)n(-c3c(C)ccnc3C(C)C)c3nc(-c4c(N)cccc4F)c(Cl)cc23)[C@@H](C)C1 (atropisomer, axis not shown; (M)) [Example 73-1, (M)-7-(2-Amino-6-fluorophenyl)-6-chloro-1-(4-methyl-2-(2-propanyl)-3-pyridinyl)-4-((2S)-2-methyl-4-(2-propenoyl)-1-piperazinyl)pyrido[2,3-d]pyrimidin-2(1H)-one]	14	12		
C=CC(=O)N1CCN(c2nc(=O)n(-c3c(C)ccnc3C(C)C)c3nc(-c4cc(F)ccc4F)c(Cl)cc23)[C@@H](C)C1 (atropisomer, axis not shown; (M)) [Example 73-2, (M)-6-chloro-7-(2,5-difluorophenyl)-1-(4-methyl-2-(2-propanyl)-3-pyridinyl)-4-((2S)-2-methyl-4-(2-propenoyl)-1-piperazinyl)pyrido[2,3-d]pyrimidin-2(1H)-one]			101	0.067 | nda μM
C=CC(=O)N1CCN(c2nc(=O)n(-c3c(C)ccnc3C(C)C)c3nc(-c4cc(C)ccc4F)c(Cl)cc23)[C@@H](C)C1 (atropisomer, axis not shown; (M)) [Example 73-3, (M)-6-chloro-7-(2-fluoro-5-methylphenyl)-1-(4-methyl-2-(2-propanyl)-3-pyridinyl)-4-((2S)-2-methyl-4-(2-propenoyl)-1-piperazinyl)pyrido[2,3-d]pyrimidin-2(1H)-one]			40	0.031 | nda μM
